Laboratory results: patent US10563263B2, “Genetic polymorphisms associated with statin response and cardiovascular diseases, methods of detection and uses thereof” (CELERA CORPORATION, priority 2010, dated 2020)

System: revascularization, unstable angina requiring hospitalization, MI, all causes of death, or stroke
Assay: PROVE IT-TIMI 22: SNP by treatment interaction (high-dose atorvastatin vs standard-dose pravastatin), logistic regression (synergy index), primary composite endpoint
Format: in vivo, human
Conditions: for OR: PROVEIT

## CC(C)c1c(C(=O)Nc2ccccc2)c(-c2ccccc2)c(-c2ccc(F)cc2)n1CC[C@@H](O)C[C@@H](O)CC(=O)O [Atorvastatin, atorvastatin]
Marker rs13129010, caseonly, model dom, End-point CHD, atorvastatin vs pravastatin
  OR: 1.39
Marker rs13150189, caseonly, model dom, End-point CVD, atorvastatin vs pravastatin
  OR: 1.36
Marker rs16934059, cohort, model dom, End-point CHD, atorvastatin vs pravastatin
  OR: 0.65
Marker rs17002013, cohort, model dom, End-point CVD, atorvastatin vs pravastatin
  OR: 1.38
Marker rs17688430, caseonly, model add, End-point CVD, atorvastatin vs pravastatin
  OR: 0.77
Marker rs17821383, caseonly, model rec, End-point CHD, atorvastatin vs pravastatin
  OR: 0.35
rs4773, caseonly, dom, CVD
  OR: 0.68
rs475420, caseonly, dom, CVD
  OR: 1.57
rs1045916, caseonly, add, CHD
  OR: 0.79
rs7067780, caseonly, dom, CVD
  OR: 1.41
rs9906737, caseonly, dom, CHD
  OR: 0.53
rs17644708, caseonly, rec, CVD
  OR: 0.34
rs742827, allele A, ADD, Imputed, atorvastatin vs pravastatin
  OR (SNP x treatment interaction): 1.396
rs879961, allele T, ADD, Imputed, atorvastatin vs pravastatin
  OR (SNP x treatment interaction): 1.178
rs906353, allele A, DOM, Imputed, atorvastatin vs pravastatin
  OR (SNP x treatment interaction): 1.22
rs915491, allele C, DOM, Imputed, atorvastatin vs pravastatin
  OR (SNP x treatment interaction): 1.329
rs915493, allele T, DOM, Imputed, atorvastatin vs pravastatin
  OR (SNP x treatment interaction): 1.329
rs915494, allele A, ADD, Imputed, atorvastatin vs pravastatin
  OR (SNP x treatment interaction): 1.399
rs915494, allele A, DOM, Imputed, atorvastatin vs pravastatin
  OR (SNP x treatment interaction): 1.486
rs917295, allele G, DOM, Imputed, atorvastatin vs pravastatin
  OR (SNP x treatment interaction): 0.5934
rs966583, allele A, ADD, Imputed, atorvastatin vs pravastatin
  OR (SNP x treatment interaction): 0.7596
rs966583, allele A, DOM, Imputed, atorvastatin vs pravastatin
  OR (SNP x treatment interaction): 0.6781
rs7180245, allele A, REC, Imputed, atorvastatin vs pravastatin
  OR (SNP x treatment interaction): 1.965
rs7283476, allele T, ADD, Imputed, atorvastatin vs pravastatin
  OR (SNP x treatment interaction): 0.413
rs7283476, allele T, DOM, Imputed, atorvastatin vs pravastatin
  OR (SNP x treatment interaction): 0.3545
rs7298255, allele A, ADD, Imputed, atorvastatin vs pravastatin
  OR (SNP x treatment interaction): 0.7433
rs7298255, allele A, DOM, Imputed, atorvastatin vs pravastatin
  OR (SNP x treatment interaction): 0.74
rs7392620, allele C, ADD, Imputed, atorvastatin vs pravastatin
  OR (SNP x treatment interaction): 0.6521
rs7446891, allele G, DOM, Imputed, atorvastatin vs pravastatin
  OR (SNP x treatment interaction): 0.5934
rs7448641, allele C, ADD, Imputed, atorvastatin vs pravastatin
  OR (SNP x treatment interaction): 0.9741
rs7448641, allele C, DOM, Imputed, atorvastatin vs pravastatin
  OR (SNP x treatment interaction): 1.136
rs7499402, allele A, ADD, Genotyped, atorvastatin vs pravastatin
  OR (SNP x treatment interaction): 2.08
rs7529851, allele A, ADD, Imputed, atorvastatin vs pravastatin
  OR (SNP x treatment interaction): 0.7324
rs7573951, allele G, ADD, Imputed, atorvastatin vs pravastatin
  OR (SNP x treatment interaction): 1.009
rs7599198, allele T, DOM, Imputed, atorvastatin vs pravastatin
  OR (SNP x treatment interaction): 0.9895
rs7607712, allele T, ADD, Imputed, atorvastatin vs pravastatin
  OR (SNP x treatment interaction): 1.357
rs7607712, allele T, DOM, Imputed, atorvastatin vs pravastatin
  OR (SNP x treatment interaction): 1.496
rs7621663, allele G, REC, Imputed, atorvastatin vs pravastatin
  OR (SNP x treatment interaction): 0.8874
rs7626584, allele G, ADD, Imputed, atorvastatin vs pravastatin
  OR (SNP x treatment interaction): 0.6617
rs7684899, allele C, ADD, Imputed, atorvastatin vs pravastatin
  OR (SNP x treatment interaction): 0.617
rs7684899, allele C, DOM, Imputed, atorvastatin vs pravastatin
  OR (SNP x treatment interaction): 0.5176
rs7701604, allele G, ADD, Imputed, atorvastatin vs pravastatin
  OR (SNP x treatment interaction): 0.9741
rs7701604, allele G, DOM, Imputed, atorvastatin vs pravastatin
  OR (SNP x treatment interaction): 1.136
rs7703676, allele C, ADD, Imputed, atorvastatin vs pravastatin
  OR (SNP x treatment interaction): 0.9741
rs7703676, allele C, DOM, Imputed, atorvastatin vs pravastatin
  OR (SNP x treatment interaction): 1.136
rs7708491, allele C, REC, Imputed, atorvastatin vs pravastatin
  OR (SNP x treatment interaction): 1.179
rs7711358, allele A, DOM, Imputed, atorvastatin vs pravastatin
  OR (SNP x treatment interaction): 0.593
rs7724761, allele T, REC, Imputed, atorvastatin vs pravastatin
  OR (SNP x treatment interaction): 1.207
rs7762993, allele A, ADD, Imputed, atorvastatin vs pravastatin
  OR (SNP x treatment interaction): 1.066
rs7762993, allele A, DOM, Imputed, atorvastatin vs pravastatin
  OR (SNP x treatment interaction): 1.079
rs7767265, allele G, ADD, Imputed, atorvastatin vs pravastatin
  OR (SNP x treatment interaction): 1.18
rs7768128, allele G, REC, Imputed, atorvastatin vs pravastatin
  OR (SNP x treatment interaction): 0.3066
rs7773151, allele C, DOM, Genotyped, atorvastatin vs pravastatin
  OR (SNP x treatment interaction): 1.038
rs7773210, allele A, DOM, Genotyped, atorvastatin vs pravastatin
  OR (SNP x treatment interaction): 1.038
rs7843510, allele G, DOM, Genotyped, atorvastatin vs pravastatin
  OR (SNP x treatment interaction): 0.9929
rs7939893, allele C, ADD, Imputed, atorvastatin vs pravastatin
  OR (SNP x treatment interaction): 0.6916
rs7939893, allele C, DOM, Imputed, atorvastatin vs pravastatin
  OR (SNP x treatment interaction): 0.506
rs7944513, allele T, REC, Imputed, atorvastatin vs pravastatin
  OR (SNP x treatment interaction): 1.787
rs7949720, allele G, ADD, Imputed, atorvastatin vs pravastatin
  OR (SNP x treatment interaction): 1.485
rs7949720, allele G, DOM, Imputed, atorvastatin vs pravastatin
  OR (SNP x treatment interaction): 1.52
rs7955901, allele C, ADD, Imputed, atorvastatin vs pravastatin
  OR (SNP x treatment interaction): 0.7285
rs7955901, allele C, DOM, Imputed, atorvastatin vs pravastatin
  OR (SNP x treatment interaction): 0.7139
rs7956274, allele T, ADD, Imputed, atorvastatin vs pravastatin
  OR (SNP x treatment interaction): 0.7156
rs7956274, allele T, DOM, Imputed, atorvastatin vs pravastatin
  OR (SNP x treatment interaction): 0.7031
rs7957932, allele G, ADD, Imputed, atorvastatin vs pravastatin
  OR (SNP x treatment interaction): 0.7234
rs7957932, allele G, DOM, Imputed, atorvastatin vs pravastatin
  OR (SNP x treatment interaction): 0.6888
rs7999518, allele A, REC, Imputed, atorvastatin vs pravastatin
  OR (SNP x treatment interaction): 0.4462
rs8026245, allele G, REC, Imputed, atorvastatin vs pravastatin
  OR (SNP x treatment interaction): 1.888
rs8060725, allele A, ADD, Genotyped, atorvastatin vs pravastatin
  OR (SNP x treatment interaction): 0.6772
rs8103016, allele A, ADD, Genotyped, atorvastatin vs pravastatin
  OR (SNP x treatment interaction): 1.223
rs8104182, allele G, ADD, Imputed, atorvastatin vs pravastatin
  OR (SNP x treatment interaction): 1.298
rs8104182, allele G, DOM, Imputed, atorvastatin vs pravastatin
  OR (SNP x treatment interaction): 1.4
rs8129461, allele G, ADD, Imputed, atorvastatin vs pravastatin
  OR (SNP x treatment interaction): 0.3726
rs8129461, allele G, DOM, Imputed, atorvastatin vs pravastatin
  OR (SNP x treatment interaction): 0.3187
rs8130021, allele G, ADD, Imputed, atorvastatin vs pravastatin
  OR (SNP x treatment interaction): 0.4152
rs8130021, allele G, DOM, Imputed, atorvastatin vs pravastatin
  OR (SNP x treatment interaction): 0.3565
rs9293464, allele T, REC, Imputed, atorvastatin vs pravastatin
  OR (SNP x treatment interaction): 1.207
rs9295154, allele G, DOM, Genotyped, atorvastatin vs pravastatin
  OR (SNP x treatment interaction): 1.463
rs9310221, allele A, DOM, Imputed, atorvastatin vs pravastatin
  OR (SNP x treatment interaction): 0.8966
rs9327555, allele T, DOM, Imputed, atorvastatin vs pravastatin
  OR (SNP x treatment interaction): 0.5934
rs9403367, allele C, DOM, Imputed, atorvastatin vs pravastatin
  OR (SNP x treatment interaction): 1.038
rs9419608, allele G, REC, Imputed, atorvastatin vs pravastatin
  OR (SNP x treatment interaction): 0.5885
rs9426437, allele T, DOM, Imputed, atorvastatin vs pravastatin
  OR (SNP x treatment interaction): 1.067
rs9454967, allele G, DOM, Imputed, atorvastatin vs pravastatin
  OR (SNP x treatment interaction): 0.9744
rs9635511, allele T, DOM, Imputed, atorvastatin vs pravastatin
  OR (SNP x treatment interaction): 0.8692
rs9812206, allele G, ADD, Imputed, atorvastatin vs pravastatin
  OR (SNP x treatment interaction): 1.042
rs9812206, allele G, DOM, Imputed, atorvastatin vs pravastatin
  OR (SNP x treatment interaction): 1.042
rs9813552, allele G, ADD, Imputed, atorvastatin vs pravastatin
  OR (SNP x treatment interaction): 1.042
rs9813552, allele G, DOM, Imputed, atorvastatin vs pravastatin
  OR (SNP x treatment interaction): 1.077
rs9815037, allele T, DOM, Imputed, atorvastatin vs pravastatin
  OR (SNP x treatment interaction): 1.083
rs9825349, allele A, DOM, Imputed, atorvastatin vs pravastatin
  OR (SNP x treatment interaction): 1.083
rs9840756, allele A, ADD, Imputed, atorvastatin vs pravastatin
  OR (SNP x treatment interaction): 0.9995
rs9840756, allele A, DOM, Imputed, atorvastatin vs pravastatin
  OR (SNP x treatment interaction): 1.031
